Experimental data published in patent publication US20140249135A1, “PIM KINASE INHIBITORS AND METHODS OF THEIR USE” (NOVARTIS AG, priority 2007, published 2014).
Read-outs that look alike come from different tables or passages of the source.

Columns and labels:
Pim1 kinase = Pim1 kinase (Homo sapiens, UniProt P11309); experiment: Pim1 ATP depletion assay; type: biochemical;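 note: Luciferase-luciferin luminescence readout of residual ATP after PIM1 transfers phosphate to a peptide substrate, 40 µM ATP added, reaction run to roughly half ATP consumption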
Pim2 kinase = Pim2 kinase (Homo sapiens, UniProt Q9P1W9); experiment: Pim2 ATP depletion assay; type: biochemical;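 note: Luciferase-based luminescent readout of ATP remaining after PIM2 phosphorylates a BAD peptide, final 5 nM enzyme, 4 µM ATP, 10 µM peptide, 2.5% DMSO, run to roughly half ATP consumption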
Pim3 kinase = Pim3 kinase (Homo sapiens, UniProt Q86V86); experiment: Pim3 ATP depletion assay; type: biochemical
HEL 92.1.7 cells = experiment: Cell proliferation assay (CellTiter-Glo), HEL 92.1.7; type: cell-based; conditions: Homo sapiens
Procedure, shortened: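 Cells in RPMI1640 with 10% FBS were seeded at 1000 cells/well and exposed to compound dilutions from DMSO stocks for 3 days at 37 °C. Viability was read by CellTiter-Glo luminescence. EC50 was derived from percent inhibition relative to DMSO-only and control-compound wells.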

[1] = biological target: T1, human full length PKCE enzyme (Homo sapiens, UniProt Q02156); experiment: In vitro PKCE assay; type: biochemical; conditions: 10 nM enzyme, 40 uM peptide substrate, 20 uM ATP, KinaseGlo Plus readout; read-out: PKCε IC50
T1 construct: human full length PKCE enzyme purchased from InVitrogen; purchased InVitrogen
T1 sequence (Q02156 1-737): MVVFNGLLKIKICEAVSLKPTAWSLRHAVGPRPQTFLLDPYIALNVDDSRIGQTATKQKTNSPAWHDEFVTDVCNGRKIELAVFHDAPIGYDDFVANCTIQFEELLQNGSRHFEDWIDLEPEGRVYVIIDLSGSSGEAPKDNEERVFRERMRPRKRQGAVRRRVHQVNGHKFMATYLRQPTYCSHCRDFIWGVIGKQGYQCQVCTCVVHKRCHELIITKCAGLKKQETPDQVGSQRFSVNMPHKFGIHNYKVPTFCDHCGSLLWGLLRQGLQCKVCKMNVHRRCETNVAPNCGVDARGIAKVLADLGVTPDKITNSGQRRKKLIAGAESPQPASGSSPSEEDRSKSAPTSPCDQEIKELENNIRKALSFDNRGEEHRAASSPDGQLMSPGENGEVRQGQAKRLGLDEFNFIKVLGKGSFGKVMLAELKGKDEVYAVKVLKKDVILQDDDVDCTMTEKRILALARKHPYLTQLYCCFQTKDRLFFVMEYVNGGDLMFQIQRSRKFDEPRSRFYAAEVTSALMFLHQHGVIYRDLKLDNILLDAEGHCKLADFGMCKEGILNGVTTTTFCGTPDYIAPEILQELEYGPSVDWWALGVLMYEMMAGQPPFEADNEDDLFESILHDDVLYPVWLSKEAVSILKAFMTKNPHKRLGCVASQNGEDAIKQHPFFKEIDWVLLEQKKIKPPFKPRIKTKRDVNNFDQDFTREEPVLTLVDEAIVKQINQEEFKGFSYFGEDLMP

KDR kinase = KDR kinase (Homo sapiens, UniProt P35968); experiment: KDR AlphaScreen assay; conditions: KDR IC50 (μM)
[2] = Pim1 ATP depletion assay, read-out: IC50 (μM) PIM1

Pim1 kinase, sequence (P11309 whole entry): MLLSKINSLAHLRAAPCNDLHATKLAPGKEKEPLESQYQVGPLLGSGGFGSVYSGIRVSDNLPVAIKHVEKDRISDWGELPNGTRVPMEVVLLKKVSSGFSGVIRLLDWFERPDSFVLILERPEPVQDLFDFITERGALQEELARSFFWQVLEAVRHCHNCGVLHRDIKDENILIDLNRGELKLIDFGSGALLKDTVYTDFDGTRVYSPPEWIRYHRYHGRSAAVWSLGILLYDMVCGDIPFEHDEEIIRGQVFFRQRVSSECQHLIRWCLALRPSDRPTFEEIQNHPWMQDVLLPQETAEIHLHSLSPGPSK
KDR kinase, sequence (P35968 20-1356): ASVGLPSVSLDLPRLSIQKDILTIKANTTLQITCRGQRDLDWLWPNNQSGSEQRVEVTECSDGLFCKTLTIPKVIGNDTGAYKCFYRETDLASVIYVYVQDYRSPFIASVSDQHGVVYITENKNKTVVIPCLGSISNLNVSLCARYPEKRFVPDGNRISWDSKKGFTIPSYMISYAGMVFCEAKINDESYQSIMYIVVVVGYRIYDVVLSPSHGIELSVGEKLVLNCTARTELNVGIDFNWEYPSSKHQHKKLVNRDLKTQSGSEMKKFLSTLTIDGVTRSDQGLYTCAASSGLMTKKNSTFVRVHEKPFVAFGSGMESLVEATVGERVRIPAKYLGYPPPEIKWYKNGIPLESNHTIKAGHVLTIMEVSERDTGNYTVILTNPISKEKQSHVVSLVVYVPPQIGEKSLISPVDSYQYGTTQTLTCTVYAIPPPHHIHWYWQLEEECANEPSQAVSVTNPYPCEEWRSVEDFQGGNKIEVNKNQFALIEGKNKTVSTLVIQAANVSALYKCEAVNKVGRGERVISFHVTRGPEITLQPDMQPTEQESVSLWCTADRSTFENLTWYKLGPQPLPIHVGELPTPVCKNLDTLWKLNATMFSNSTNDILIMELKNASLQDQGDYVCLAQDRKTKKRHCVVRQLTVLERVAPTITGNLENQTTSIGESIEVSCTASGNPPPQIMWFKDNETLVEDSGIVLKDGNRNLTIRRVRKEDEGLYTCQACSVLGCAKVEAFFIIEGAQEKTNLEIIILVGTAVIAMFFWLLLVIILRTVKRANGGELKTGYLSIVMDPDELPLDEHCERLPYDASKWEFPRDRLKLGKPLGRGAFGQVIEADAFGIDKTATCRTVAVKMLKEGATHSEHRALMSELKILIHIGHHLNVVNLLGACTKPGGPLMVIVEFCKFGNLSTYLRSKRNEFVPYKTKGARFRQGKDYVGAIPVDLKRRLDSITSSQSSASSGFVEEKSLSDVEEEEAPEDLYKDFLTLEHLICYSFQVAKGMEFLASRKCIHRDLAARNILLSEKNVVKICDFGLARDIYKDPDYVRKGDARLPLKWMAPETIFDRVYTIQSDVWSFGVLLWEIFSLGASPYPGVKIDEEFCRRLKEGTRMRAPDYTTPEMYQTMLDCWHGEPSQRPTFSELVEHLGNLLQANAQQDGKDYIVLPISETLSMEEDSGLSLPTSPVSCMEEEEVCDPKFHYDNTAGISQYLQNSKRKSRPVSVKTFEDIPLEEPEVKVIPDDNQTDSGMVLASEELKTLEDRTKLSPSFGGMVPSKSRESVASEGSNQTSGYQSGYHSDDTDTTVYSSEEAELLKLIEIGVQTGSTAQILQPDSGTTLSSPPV
Pim2 kinase, sequence (Q9P1W9 whole entry): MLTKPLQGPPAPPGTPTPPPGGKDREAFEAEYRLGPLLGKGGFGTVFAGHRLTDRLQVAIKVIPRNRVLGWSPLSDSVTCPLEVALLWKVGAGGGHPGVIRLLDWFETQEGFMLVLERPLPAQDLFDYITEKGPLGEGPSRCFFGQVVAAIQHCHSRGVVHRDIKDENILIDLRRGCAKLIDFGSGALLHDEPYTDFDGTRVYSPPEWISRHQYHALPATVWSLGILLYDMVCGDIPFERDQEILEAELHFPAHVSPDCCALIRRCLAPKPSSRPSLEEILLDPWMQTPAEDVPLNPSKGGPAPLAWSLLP

Row | IC50 (Pim1 kinase; [2]) [µM] | IC50 (Pim2 kinase; read-out: IC50 (μM) PIM2) [µM] | IC50 (Pim3 kinase; read-out: IC50 (μM) PIM3) [µM] | IC50 [1] [nM] | IC50 (KDR kinase) [µM] | IC50 (Pim1 kinase; Pim1 ATP depletion assay, read-out: PIM1 IC50) [µM] | IC50 (Pim2 kinase; read-out: PIM2 IC50) [µM] | IC50 (Pim3 kinase; read-out: PIM3 IC50) [µM] | SMILES | EC50 (HEL 92.1.7 cells; read-out: EC50 (μM) HEL 92.1.7) [µM] | IC50 (Pim1 kinase) [µM] | EC50 (HEL 92.1.7 cells; read-out: HEL 92.1.7 EC50) [µM]
1 | < 1 | < 1 | < 1 | < 1000 | 1 to 10 | – | – | – | Nc1nc(N)c(-c2ccccc2C(F)(F)F)nc1C(=O)Nc1cnccc1N1CCCC(N)C1 (stereo not shown) [Example 341, 3,5-diamino-6-(2-trifluoro-methyl-phenyl)-pyrazine-2-carboxylic acid (3-amino-3,4,5,6-tetrahydro-2H-[1,4′]bi-pyridinyl-3′-yl)-amide] | 1 to 5 | – | –
2 | < 1 | < 1 | < 1 | 10000 to 25000 | > 25 | – | – | – | Nc1ccc(-c2ccc(N)c(C(=O)Nc3cnccc3N3CCC[C@H](N)C3)n2)cn1 [Example 418, 5,6′-diamino-[2,3′]bipyridinyl-6-carboxylic acid ((S)-3-amino-3,4,5,6-tetrahydro-2H-[1,4′]bi-pyridinyl-3′-yl)-amide] | 1 to 5 | – | –
3 | < 1 | < 1 | < 1 | > 25000 | < 1 | – | – | – | Nc1nc(N)c(C(=O)Nc2[nH]c(=O)ncc2N2CCC(F)(F)CC2)nc1Cl [Example 161, 3,5-diamino-6-chloro-N-[5-(4,4-difluoropiperidin-1-yl)-2-oxo-2,3-dihydropyrimidin-4-yl]-pyrazine-2-carboxamide] | > 10 | – | –
4 | < 1 | < 1 | < 1 | > 25000 | < 1 | – | – | – | Nc1nc(N)c(C(=O)Nc2[nH]c(=O)ncc2N2CCC(C(F)(F)F)CC2)nc1Cl [Example 159, 3,5-diamino-6-chloro-N-{2-oxo-5-[4-(trifluoromethyl)piperidin-1-yl]-2,3-dihydropyrimidin-4-yl}pyrazine-2-carboxamide] | 5 to 10 | – | –
5 | < 1 | < 1 | < 1 | < 1000 | 1 to 10 | – | – | – | Nc1nccnc1C(=O)Nc1[nH]c(=O)ncc1N1CCCCC1 [Example 130, 3-amino-N-(2-oxo-5-piperidin-1-yl-2,3-dihydropyrimidin-4-yl)-pyrazine-2-carboxamide] | 5 to 10 | – | –
6 | < 1 | < 1 | < 1 | 10000 to 25000 | > 25 | – | – | – | Cc1ccc(F)c(-c2ccc(N)c(C(=O)Nc3cnccc3N3CCC[C@H](N)C3)n2)c1 [Example 333, 3-amino-6-(2-fluoro-5-methyl-phenyl)-pyridine-2-carboxylic acid ((S)-3-amino-3,4,5,6-tetrahydro-2H-[1,4′]bi-pyridinyl-3′-yl)-amide] | 1 to 5 | – | –
7 | – | 1 to 10 | < 1 | < 1000 | 1 to 10 | – | – | – | Nc1nccnc1C(=O)Nc1cnccc1N1CCCCC1 [Example 123, 3-amino-N-(4-piperidin-1-yl-pyridin-3-yl)pyrazine-2-carbox-amide] | < 1 | < 1 | –
8 | < 1 | < 1 | < 1 | 1000 to 10000 | 1 to 10 | – | – | – | Nc1nc(N)c(-c2ccccc2Cl)nc1C(=O)Nc1cnccc1N1CCCC(N)C1 (stereo not shown) [Example 342, 3,5-diamino-6-(2-chloro-phenyl)-pyrazine-2-carboxylic acid (3-amino-3,4,5,6-tetra-hydro-2H-[1,4′]bipyridinyl-3′-yl)-amide] | < 1 | – | –
9 | < 1 | < 1 | < 1 | 10000 to 25000 | > 25 | – | – | – | COc1ccccc1-c1nc(C(=O)Nc2cnccc2N2CCCC(N)C2)c(N)nc1N (stereo not shown) [Example 344, 3,5-diamino-6-(2-methoxy-phenyl)-pyrazine-2-carboxylic acid (3-amino-3,4,5,6-tetra-hydro-2H-[1,4′]bipyridinyl-3′-yl)-amide] | > 10 | – | –
10 | – | – | – | 1000 to 10000 | < 1 | < 1 | < 1 | < 1 | Nc1ncc(-c2ccccc2)nc1C(=O)Nc1[nH]c(=O)ncc1N1CCCCC1 [Example 590, 3-amino-6-phenyl-pyrazine-2-carboxylic acid (2-oxo-5-piperidin-1-yl-2,3-dihydro-pyrimidin-4-yl)-amide] | – | – | 1 to 5
11 | < 1 | < 1 | < 1 | 10000 to 25000 | 1 to 10 | – | – | – | Nc1nc(N)c(C(=O)Nc2cnccc2N2CCCC(N)C2)nc1Cl (stereo not shown) [Example 183, 3,5-diamino-N-[4-(3-amino-piperidin-1-yl)pyridin-3-yl]-6-chloropyrazine-2-carboxamide] | < 1 | – | –
12 | < 1 | < 1 | < 1 | < 1000 | – | – | – | – | Nc1ncc(-c2ccccc2OC(F)(F)F)nc1C(=O)Nc1cnccc1N1CCCC(N)C1 (stereo not shown) [Example 347, 3-amino-6-(2-trifluoro-methoxy-phenyl)-pyrazine-2-carboxylic acid (3-amino-3,4,5,6-tetrahydro-2H-[1,4′]bi-pyridinyl-3′-yl)-amide] | < 1 | – | –
13 | < 1 | < 1 | < 1 | > 25000 | – | – | – | – | Nc1nc(N)c(C(=O)Nc2[nH]c(=O)ncc2N2CCCC(F)C2)nc1Cl (stereo not shown) [Example 160, 3,5-diamino-6-chloro-N-[5-(3-fluoropiperidin-1-yl)-2-oxo-2,3-dihydropyrimidin-4-yl]pyrazine-2-carboxamide] | > 10 | – | –
14 | < 1 | < 1 | < 1 | < 1000 | – | – | – | – | Nc1ncc(-c2cccc(Cl)c2)nc1C(=O)Nc1cnccc1N1CCCC(N)C1 (stereo not shown) [Example 352, 3-amino-6-(3-chloro-phenyl)-pyrazine-2-carboxylic acid (3-amino-3,4,5,6-tetrahydro-2H-[1,4′]bipyridinyl-3′-yl)-amide] | < 1 | – | –
15 | < 1 | < 1 | < 1 | < 1000 | – | – | – | – | Nc1ncc(-c2ccccc2Cl)nc1C(=O)Nc1cnccc1N1CCCC(N)C1 (stereo not shown) [Example 346, 3-amino-6-(2-chloro-phenyl)-pyrazine-2-carboxylic acid (3-amino-3,4,5,6-tetrahydro-2H-[1,4′]bipyridinyl-3′-yl)-amide] | < 1 | – | –
16 | < 1 | < 1 | < 1 | > 25000 | – | – | – | – | Nc1nc(N)c(C(=O)Nc2[nH]c(=O)ncc2N2CCC(F)CC2)nc1Cl [Example 151, 3,5-diamino-6-chloro-N-[5-(4-fluoropiperidin-1-yl)-2-oxo-2,3-dihydropyrimidin-4-yl]pyrazine-2-carboxamide] | > 10 | – | –
17 | < 1 | < 1 | < 1 | 10000 to 25000 | – | – | – | – | COc1ccc(F)cc1-c1ccc(N)c(C(=O)Nc2cnccc2N2CCC[C@H](N)C2)n1 [Example 427, 3-amino-6-(5-fluoro-2-methoxy-phenyl)-pyridine-2-carboxylic acid ((S)-3-amino-3,4,5,6-tetra-hydro-2H-[1,4′]bipyridinyl-3′-yl)-amide] | 1 to 5 | – | –
18 | < 1 | < 1 | < 1 | 1000 to 10000 | – | – | – | – | COc1ccccc1-c1cnc(N)c(C(=O)Nc2cnccc2N2CCCC(N)C2)n1 (stereo not shown) [Example 349, 3-amino-6-(2-methoxy-phenyl)-pyrazine-2-carboxylic acid (3-amino-3,4,5,6-tetra-hydro-2H-[1,4′]bipyridinyl-3′-yl)-amide] | < 1 | – | –
19 | < 1 | < 1 | < 1 | < 1000 | – | – | – | – | NCC(=O)N1CCN(c2ccncc2NC(=O)c2nc(Br)cnc2N)CC1 [Example 179, 3-amino-N-{4-[4-(aminoacetyl)-piperazin-1-yl]pyridin-3-yl}-6-bromopyrazine-2-carboxamide] | 1 to 5 | – | –

Row | SMILES | IC50 (Pim1 kinase; [2]) [µM] | IC50 (Pim2 kinase; read-out: IC50 (μM) PIM2) [µM] | IC50 (Pim3 kinase; read-out: IC50 (μM) PIM3) [µM] | IC50 [1] [nM] | IC50 (KDR kinase) [µM] | IC50 (Pim1 kinase; Pim1 ATP depletion assay, read-out: PIM1 IC50) [µM] | IC50 (Pim2 kinase; read-out: PIM2 IC50) [µM] | IC50 (Pim3 kinase; read-out: PIM3 IC50) [µM] | EC50 (HEL 92.1.7 cells; read-out: EC50 (μM) HEL 92.1.7) [µM] | IC50 (Pim1 kinase) [µM] | EC50 (HEL 92.1.7 cells; read-out: HEL 92.1.7 EC50) [µM]
20 | NCC1CCCN(c2ccncc2NC(=O)c2nccnc2N)C1 (stereo not shown) [Example 184, 3-amino-N-{4-[3-(aminomethyl)-piperidin-1-yl]pyridin-3-yl}pyrazine-2-carboxamide] | – | 1 to 10 | < 1 | < 1000 | 10 to 25 | – | – | – | < 1 | < 1 | –
